Measured values as given in patent US20250144067A1, “PERSONALIZED STARVATION THERAPY FOR CANCER” (Faeth Therapeutics, Inc., priority 2021, published 2025).
Where a name gives a salt, the structure may show the parent alone. Read-outs that look alike come from different tables or passages of the source.

Assays:
[1] = system: NCI-H292 lung cancer cells; test: FDA drug screening, complete media vs cholesterol-free media without statin (TABLE 1); type: cell-based, human
[2] = system: NCI-H292 lung cancer cells; test: FDA drug screening, complete media vs cholesterol-free media with simvastatin (TABLE 2); type: cell-based, human
[3] = Complete minus Cholesterol-free, >0 enhanced anti-cancer activity, about 0 neutral, <0 antagonist
[4] = NCI-H292 cells, cholesterol-free media without statin, FDA drug library screen
[5] = NCI-H292 cells, complete media, FDA drug library screen
[6] = NCI-H292 cells, FDA drug library screen, cholesterol-free media with simvastatin 0.04 μM
[7] = NCI-H292 cells, FDA drug library screen, complete media
[8] = complete media minus cholesterol-free media + simvastatin, >0 enhanced anti-cancer activity, about 0 neutral, <0 antagonist
[9] = Complete minus Cholesterol-free, greater than 0 enhanced anti-cancer activity, about 0 neutral, below 0 antagonists
[10] = NCI-H292 cells in cholesterol-free media without statin
[11] = NCI-H292 cells in complete media
[12] = NCI-H292 cells, FDA library drug in cholesterol-free media with simvastatin 0.04 μM
[13] = NCI-H292 cells, FDA library drug in complete media
[14] = complete media vs cholesterol-free media + simvastatin (0.04 μM), >0 enhanced anti-cancer activity, about 0 neutral, <0 antagonist
[15] = NCI-H292 cells, cholesterol-free media without statin
[16] = NCI-H292 cells, cholesterol-free media with simvastatin 0.04 μM, FDA drug library screen (TABLE 2)
[17] = NCI-H292 cells, complete media, FDA drug library screen (TABLE 2)
[18] = complete media minus cholesterol-free media + simvastatin (0.04 μM), >0 enhanced anti-cancer activity, about 0 neutral, <0 antagonist
[19] = complete vs cholesterol-free media, greater than 0 enhanced anti-cancer activity, about 0 neutral, below 0 antagonists
[20] = Complete minus Cholesterol-free, […]
[21] = complete media vs cholesterol-free media + simvastatin (0.04 μM), […]
[22] = Complete minus Cholesterol-free, greater than 0 enhanced anti-cancer activity, about 0 neutral, below 0 antagonist
[23] = NCI-H292 cells, FDA drug library screen, cholesterol-free media without statin
[24] = NCI-H292 cells, cholesterol-free media with simvastatin 0.04 μM, cell growth value in FDA drug screen
[25] = NCI-H292 cells, complete media, cell growth value in FDA drug screen
[26] = NCI-H292 cells, drug in cholesterol-free media with simvastatin 0.04 μM
[27] = NCI-H292 cells, drug in complete media
[28] = complete vs cholesterol-free media, >0 enhanced anti-cancer activity, about 0 neutral, <0 antagonist

Cn1cc(C(=O)[C@@H]2CCc3nc[nH]c3C2)c2ccccc21 [Ramosetron (Hydrochloride)]
Difference [1, 3]: 0.03
Cholesterol-free [1, 4]: 0.9223
Complete [1, 5]: 0.9545
Cholesterol-free media + simvastatin (0.04 μM) [2, 6]: 1.25
Complete Media [2, 7]: 1.513
Difference [2, 8]: 0.26

CNC(=C[N+](=O)[O-])NCCSCc1ccc(CN(C)C)o1 [Ranitidine (hydrochloride)]
Difference [1, 9]: −0.55
Cholesterol-free [1, 10]: 1.186
Complete [1, 11]: 0.6384
Cholesterol-free media + simvastatin (0.04 μM) [2, 12]: 1.27
Complete Media [2, 13]: 0.8219
Difference [2, 14]: −0.45

COc1ccccc1OCC(O)CN1CCN(CC(=O)Nc2c(C)cccc2C)CC1 (stereo not drawn) [Ranolazine (dihydrochloride)]
Difference [1, 3]: −0.23
Cholesterol-free [1, 15]: 1.148
Complete ([1]; NCI-H292 cells, complete media): 0.9194
Cholesterol-free media + simvastatin (0.04 μM) [2, 16]: 0.9671
Complete Media [2, 17]: 0.9017
Difference [2, 18]: −0.07

COc1ccccc1OCC(O)CN1CCN(CC(=O)Nc2c(C)cccc2C)CC1 (stereo not drawn) [Ranolazine]
Cholesterol-free [1, 15]: 1.774
Complete ([1]; NCI-H292 cells, complete media): 1.359
Difference [1, 19]: −0.41
Cholesterol-free media + simvastatin (0.04 μM) [2, 6]: 1.311
Complete Media [2, 7]: 1.162
Difference [2, 14]: −0.15

C=CC[N+]1([C@H]2C[C@H]3[C@@H]4CC[C@H]5C[C@H](OC(C)=O)[C@@H](N6CCCCC6)C[C@]5(C)[C@H]4CC[C@]3(C)[C@H]2OC(=O)CC)CCCCC1 [Rapacuronium bromide]
Difference [1, 20]: 0.04
Cholesterol-free [1, 4]: 0.8802
Complete [1, 5]: 0.9158
Cholesterol-free media + simvastatin (0.04 μM) [2, 12]: 1.051
Complete Media [2, 13]: 0.7626
Difference [2, 21]: −0.29

CO[C@H]1C[C@@H]2CC[C@@H](C)[C@@](O)(O2)C(=O)C(=O)N2CCCC[C@H]2C(=O)O[C@H]([C@H](C)C[C@@H]2CC[C@@H](O)[C@H](OC)C2)CC(=O)[C@H](C)/C=C(\C)[C@@H](O)[C@@H](OC)C(=O)[C@H](C)C[C@H](C)/C=C/C=C/C=C/1C [Rapamycin]
Difference [1, 22]: −0.13
Cholesterol-free [1, 23]: 0.3515
Complete [1, 7]: 0.2187
Cholesterol-free media + simvastatin (0.04 μM) [2, 12]: 1.159
Complete Media [2, 13]: 0.8704
Difference [2, 14]: −0.29

COC(=O)[C@H]1[C@H]2C[C@H]3c4[nH]c5ccccc5c4CCN3C[C@H]2CC[C@@H]1O [Rauwolscine (hydrochloride)]
Cholesterol-free [1, 15]: 1.377
Complete ([1]; NCI-H292 cells, complete media): 0.9629
Difference [1, 19]: −0.41
Cholesterol-free media + simvastatin (0.04 μM) [2, 24]: 0.7455
Complete Media [2, 25]: 0.837
Difference [2, 8]: 0.09

O=C(NC(Cc1cc(=O)[nH]c2ccccc12)C(=O)O)c1ccc(Cl)cc1 (stereo not drawn) [Rebamipide]
Difference [1, 9]: −0.60
Cholesterol-free [1, 10]: 1.735
Complete [1, 11]: 1.132
Cholesterol-free media + simvastatin (0.04 μM) [2, 6]: 1.344
Complete Media [2, 7]: 1.19
Difference [2, 14]: −0.15

CCOc1ccccc1OC(c1ccccc1)C1CNCCO1.CS(=O)(=O)O (stereo not drawn) [Reboxetine (mesylate)]
Cholesterol-free [1, 4]: 1.105
Complete [1, 5]: 1.321
Difference ([1]; complete vs cholesterol-free media, […]): 0.22
Cholesterol-free media + simvastatin (0.04 μM) [2, 6]: 0.8624
Complete Media [2, 7]: 0.7048
Difference [2, 21]: −0.16

CNC(=O)c1cnn(-c2nc(N)c3ncn([C@@H]4O[C@H](CO)[C@@H](O)[C@H]4O)c3n2)c1 [Regadenoson]
Difference [1, 20]: −0.21
Cholesterol-free [1, 15]: 1.426
Complete ([1]; NCI-H292 cells, complete media): 1.216
Cholesterol-free media + simvastatin (0.04 μM) [2, 12]: 1.362
Complete Media [2, 13]: 1.055
Difference [2, 21]: −0.31

CNC(=O)c1cc(Oc2ccc(NC(=O)Nc3ccc(Cl)c(C(F)(F)F)c3)c(F)c2)ccn1 [Regorafenib (Hydrochloride)]
Difference [1, 3]: 0.04
Cholesterol-free [1, 4]: 0.8297
Complete [1, 5]: 0.8736
Cholesterol-free media + simvastatin (0.04 μM) [2, 16]: 0.9433
Complete Media [2, 17]: 0.9026
Difference [2, 18]: −0.04

CNC(=O)c1cc(Oc2ccc(NC(=O)Nc3ccc(Cl)c(C(F)(F)F)c3)c(F)c2)ccn1 [Regorafenib (monohydrate)]
Cholesterol-free [1, 15]: 1.026
Complete ([1]; NCI-H292 cells, complete media): 0.6282
Difference [1, 19]: −0.40
Cholesterol-free media + simvastatin (0.04 μM) [2, 12]: 1.311
Complete Media [2, 13]: 0.728
Difference [2, 14]: −0.58

CNC(=O)c1cc(Oc2ccc(NC(=O)Nc3ccc(Cl)c(C(F)(F)F)c3)c(F)c2)ccn1 [Regorafenib]
Difference [1, 22]: −0.09
Cholesterol-free [1, 23]: 0.6924
Complete [1, 7]: 0.601
Cholesterol-free media + simvastatin (0.04 μM) [2, 26]: 1.071
Complete Media [2, 27]: 0.8585
Difference [2, 14]: −0.21

NC(=O)c1ccn(-c2cnc(NC[C@]3(c4ncccc4F)C[C@H](F)C3)nc2)c1 [Reldesemtiv]
Difference [1, 3]: −0.25
Cholesterol-free [1, 15]: 1.096
Complete ([1]; NCI-H292 cells, complete media): 0.8441
Cholesterol-free media + simvastatin (0.04 μM) [2, 26]: 1.122
Complete Media [2, 27]: 0.9357
Difference [2, 14]: −0.19

O=C(NC1CCNCC1)[C@@H]1CC[C@@H]2CN1C(=O)N2OS(=O)(=O)O [Relebactam]
Difference [1, 9]: −0.59
Cholesterol-free [1, 10]: 1.438
Complete [1, 11]: 0.845
Cholesterol-free media + simvastatin (0.04 μM) [2, 24]: 0.885
Complete Media [2, 25]: 0.9451
Difference [2, 8]: 0.06

CONC(=O)Nc1ccc(-c2sc3c(c2CN(C)C)c(=O)n(-c2ccc(OC)nn2)c(=O)n3Cc2c(F)cccc2F)cc1 [Relugolix]
Difference [1, 9]: −0.64
Complete [1, 11]: 0.978
Cholesterol-free media + simvastatin (0.04 μM) [2, 12]: 1.344
Complete Media [2, 13]: 1.077
Difference [2, 14]: −0.27

CCOc1cc(CC(=O)N[C@@H](CC(C)C)c2ccccc2N2CCCCC2)ccc1C(=O)O [Repaglinide]
Difference [1, 22]: −0.08
Cholesterol-free [1, 23]: 1.088
Complete [1, 7]: 1.008
Cholesterol-free media + simvastatin (0.04 μM) [2, 26]: 0.996
Complete Media [2, 27]: 0.8125
Difference [2, 14]: −0.18

COC(=O)[C@H]1[C@H]2C[C@@H]3c4[nH]c5cc(OC)ccc5c4CCN3C[C@H]2C[C@@H](OC(=O)c2cc(OC)c(OC)c(OC)c2)[C@@H]1OC [Reserpine (hydrochloride)]
Cholesterol-free [1, 15]: 1.178
Complete ([1]; NCI-H292 cells, complete media): 0.8568
Difference [1, 19]: −0.32
Cholesterol-free media + simvastatin (0.04 μM) [2, 26]: 1.074
Complete Media [2, 27]: 0.834
Difference [2, 14]: −0.24

COC(=O)[C@H]1[C@H]2C[C@@H]3c4[nH]c5cc(OC)ccc5c4CCN3C[C@H]2C[C@@H](OC(=O)c2cc(OC)c(OC)c(OC)c2)[C@@H]1OC [Reserpine]
Difference [1, 3]: −0.28
Cholesterol-free [1, 15]: 1.042
Complete ([1]; NCI-H292 cells, complete media): 0.7591
Cholesterol-free media + simvastatin (0.04 μM) [2, 24]: 0.8906
Complete Media [2, 25]: 0.9102
Difference [2, 8]: 0.02

Oc1ccc(C=Cc2cc(O)cc(O)c2)cc1 [Resveratrol]
Cholesterol-free [1, 4]: 1.037
Difference [1, 28]: 0.13
Cholesterol-free media + simvastatin (0.04 μM) [2, 6]: 0.7896
Complete Media [2, 7]: 0.6933
Difference [2, 14]: −0.10

C=C[C@]1(C)C[C@@H](OC(=O)CS[C@@H]2C[C@H]3CC[C@@H](C2)N3C)[C@]2(C)[C@H](C)CC[C@]3(CCC(=O)[C@H]32)[C@@H](C)[C@@H]1O [Retapamulin]
Difference [1, 22]: −0.18
Cholesterol-free [1, 23]: 1.002
Complete [1, 7]: 0.8221
Cholesterol-free media + simvastatin (0.04 μM) [2, 16]: 1.667
Complete Media [2, 17]: 1.638
Difference [2, 18]: −0.03

CC1=C(/C=C/C(C)=C/C=C/C(C)=C/C(=O)O)C(C)(C)CCC1 [Retinoic acid]
Difference [1, 9]: −0.66
Cholesterol-free [1, 10]: 1.248
Complete [1, 11]: 0.5841
Cholesterol-free media + simvastatin (0.04 μM) [2, 6]: 0.9194
Complete Media [2, 7]: 1.253
Difference [2, 8]: 0.33

Cc1nc(Nc2ccc(F)cc2)nc(N2CCc3ccccc3C2C)c1C (stereo not drawn) [Revaprazan (hydrochloride)]
Cholesterol-free [1, 4]: 1.192
Complete [1, 5]: 1.344
Difference [1, 28]: 0.15
Cholesterol-free media + simvastatin (0.04 μM) [2, 16]: 1.005
Complete Media [2, 17]: 0.9357
Difference [2, 18]: −0.07

CN(CCN1CCC(OC(=O)Nc2ccccc2-c2ccccc2)CC1)C(=O)c1ccc(CN2CCC(C(N)=O)CC2)cc1 [Revefenacin]
Complete [1]: 0.9642
Difference [1]: −0.65
Cholesterol-free media + simvastatin (0.04 μM) [2]: 1.184
Complete Media [2]: 1.038
Difference [2]: −0.15

NC(=O)c1ncn([C@@H]2O[C@H](CO)[C@@H](O)[C@H]2O)n1 [Ribavirin]
Difference [1, 22]: −0.11
Cholesterol-free [1, 23]: 0.8402
Complete [1, 7]: 0.7281
Cholesterol-free media + simvastatin (0.04 μM) [2, 26]: 0.9314
Complete Media [2, 27]: 0.6899
Difference [2, 14]: −0.24

CN(C)C(=O)c1cc2cnc(Nc3ccc(N4CCNCC4)cn3)nc2n1C1CCCC1 [Ribociclib hydrochloride]
Cholesterol-free [1, 4]: 1.177
Complete [1, 5]: 1.5
Difference [1, 28]: 0.32
Cholesterol-free media + simvastatin (0.04 μM) [2, 6]: 0.9857
Complete Media [2, 7]: 0.8306
Difference [2, 14]: −0.16
